From patent US8697869B2, “3-(heteroaryl-amino)-1,2,3,4-tetrahydro-9H-carbazole derivatives and their use as prostaglandin D2 receptor modulators” (Actelion Pharmaceuticals Ltd., priority 2010, dated 2014)

Experiments:
hCRTH2 receptor [1] = molecular target: T1, hCRTH2 receptor (Homo sapiens (Human), UniProt Q9Y5Y4); test: Radioligand displacement assay in presence of human serum albumin (HSA); settings: 3H-PGD2 2.5 nM, Binding-Buffer with 0.5% HSA instead of 0.1% BSA
Method: (§1) First, recombinant HEK293-hCRTH2 cells were detached from culture plates into 5 ml buffer A/plate (Buffer A: 5 mM Tris, 1 mM MgCl2-6H2O pH=7.4) using a rubber policeman. Cells were then transferred into centrifugation tubes and centrifuged for 5 min at 400 g. The cell pellet was resuspended in the same buffer and tubes were frozen at −80° C. Cells were thawed and membrane fragments were generated by homogenization using a polytron homogenizer (30 seconds). The membrane fragments were then centrifuged at 3000 g for 20 minutes and resuspended in buffer C (Buffer C: 75 mM Tris, 25 mM MgCl2, 250 mM Saccharose pH 7.4). Aliquots of membrane fragements were stored at −20° C.
(§2) Binding assay was performed in a final assay volume of 250 μl. First, 25 μl of test compound, previously diluted in Binding-Buffer (Binding-Buffer: 50 mM Tris-Base, 100 mM NaCl, 1 mM EDTA, 0.1% BSA (protease free), 0.01% NaN3, 10 mM MnCl2 pH 7.0) was placed into each well. After addition of 75 μl Binding-Buffer, 50 μl of the radioligand ^3H-PGD2 (at 2.5 nM (220.000 dpm/well) from ANAWA ART0662) was added to each well. Binding assay was started by addition of 100 μl CRTH2 membrane fragments, reaching a final concentration of 20 μg/well. For non-specific binding, PGD2 was added to the reaction mixture to […] final concentration. This assay mix was incubated for 90 minutes at room temperature and then filtered through a GF/C filter 96-well plate which was pre-soaked for 3 hours in 0.5% polyethyleneimine (PEI). The filter-wells were washed three times with ice cold Binding-Buffer. Then, 40 μl of Microscint-40 (Packard) was added to each well and the retained radioactivity quantified in a Topcount (Packard).
Radioligand Displacement Assay-Human Serum Albumin (HSA):
Radioligand displacement assay in presence of human serum albumin (HSA) was performed as described above, with following modifications. Binding-Buffer-HSA: Binding-buffer+0.5% Sigma Albumin from Human serum A1887 (instead of 0.1% BSA). A volume of 25 μl test compound, previously diluted in Binding-Buffer-HSA was placed into each well. After addition of 75 μl Binding-Buffer-HSA, 50 μl of ^3H-PGD2 (at 2.5 nM (220.000 dpm/well) from ANAWA ART0662) was added to each well. Remaining protocol was identical as described above.

hCRTH2 receptor [2] = molecular target: T1, hCRTH2 receptor; test: hCRTH2 receptor membranes radioligand displacement assay (3H-PGD2); settings: 3H-PGD2 2.5 nM, HEK293-hCRTH2 membranes, Binding-Buffer with 0.1% BSA
Method: Biological Assays: Preparation of hCRTH2 Receptor Membranes and Radioligand Displacement Assay:
as §1, §2

eosinophils = test: Eosinophil shape change assay with human plasma; type: cell-based; settings: Eosinophil; human polymorphonuclear cells, 50% human plasma, activated with 100 nM PGD2
Method: After obtaining informed consent, blood samples were drawn by venipuncture according to the protocol approved by the ethics committee of Basel, Switzerland. Polymorphonuclear leukocytes (containing eosinophils, basophils and neutrophils) were isolated using the Polymorphprep™ method (Axis-Shield). In brief, anticoagulated whole blood was layered onto a Polymorphprep gradient (density 1.113 g/ml) and centrifuged at 500 g for 30 min. The polymorphonuclear cell fraction was harvested and depleted for erythrocytes by hypotonic saline lysis.
The polymorphonuclear cells were resuspended in assay buffer (1×PBS with Ca^2+/Mg^2+ supplemented with 0.1% BSA, 10 mM HEPES, and 10 mM Glucose, pH 7.4) at 5×10^6 cells/ml and stained with anti-CD49d-APC ((APC=Allophycocyanin) for 1 hour at RT. Test compounds, at various concentrations, were preincubated 10 min in human plasma (anticoagulated with a thrombin inhibitor). Then, human plasma was added to the polymorphonuclear cells to 50% of final assay volume with polymorphonuclear cells at 4×10^6 cells/rd. After incubation for 10 minutes at 37° C., the polymorphonuclear cells were activated for 5 min at 37° C. by addition of PGD2 at 100 nM final concentration. Activation was stopped by addition of 0.5 ml paraformaldehyde (1%).
Immediately after fixation with paraformaldehyde, the samples were analyzed by FACSCanto flow cytometer (BD Biosciences) and target cells were identified by their forward-scatter (FSC) and side-scatter (SSC) characteristics. Eosinophils were identified by the anti-CD49d-APC signal and their characteristic side-scatter (SSC) profile. Shape change responses, indicative of eosinophil activation, were quantified as the percent of cells with an increased forward-scatter.

T1 sequence (Q9Y5Y4 whole entry, the tested form may be a part): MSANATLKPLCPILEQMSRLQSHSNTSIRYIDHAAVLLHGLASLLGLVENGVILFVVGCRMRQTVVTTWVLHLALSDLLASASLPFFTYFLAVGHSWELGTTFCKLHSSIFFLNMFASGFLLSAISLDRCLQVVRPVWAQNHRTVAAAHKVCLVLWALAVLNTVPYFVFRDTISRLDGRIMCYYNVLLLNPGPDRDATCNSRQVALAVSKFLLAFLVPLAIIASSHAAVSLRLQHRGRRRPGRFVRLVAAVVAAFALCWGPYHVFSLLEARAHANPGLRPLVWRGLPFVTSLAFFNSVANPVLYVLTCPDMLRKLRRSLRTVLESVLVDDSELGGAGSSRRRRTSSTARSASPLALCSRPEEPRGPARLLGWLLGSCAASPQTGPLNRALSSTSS

An IC50 (hCRTH2 receptor [1]) of 8 nM, an IC50 (hCRTH2 receptor [2]) of 10 nM and an IC50 (eosinophils) of 46 nM were found for `CN(c1nc2cc(Cl)ccc2s1)[C@H]1CCc2c(c3cc(F)ccc3n2CC(=O)O)C1` [Example 33, (3S)-2-(3-((5-chlorobenzo[d]thiazol-2-yl)(methyl)amino)-6-fluoro-3,4-dihydro-1H-carbazol-9(2H)-yl)acetic acid] in this work.

An IC50 (hCRTH2 receptor [1]) of 14 nM, an IC50 (hCRTH2 receptor [2]) of 5.9 nM and an IC50 (eosinophils) of 8 nM were found for `COCCN(c1ncc(Cl)cn1)[C@H]1CCc2c(c3cc(F)ccc3n2CC(=O)O)C1` [Example 34, (3S)-2-(3-((5-chloropyrimidin-2-yl)(2-methoxyethyl)amino)-6-fluoro-3,4-dihydro-1H-carbazol-9(2H)-yl)acetic acid] in this work.

An IC50 (hCRTH2 receptor [1]) of 9 nM, an IC50 (hCRTH2 receptor [2]) of 1.2 nM and an IC50 (eosinophils) of 2 nM were found for `CN(c1nc2ccc(F)cc2s1)[C@H]1CCc2c(c3cc(F)ccc3n2CC(=O)O)C1` [Example 38, (3S)-2-(6-fluoro-3-((6-fluorobenzo[d]thiazol-2-yl)(methyl)amino)-3,4-dihydro-1H-carbazol-9(2H)-yl)acetic acid] in this work.

An IC50 (hCRTH2 receptor [1]) of 6 nM, an IC50 (hCRTH2 receptor [2]) of 3.1 nM and an IC50 (eosinophils) of 16 nM were found for `CN(c1nc2cc(F)ccc2s1)[C@H]1CCc2c(c3cc(F)ccc3n2CC(=O)O)C1` [Example 39, (3S)-2-(6-fluoro-3-((5-fluorobenzo[d]thiazol-2-yl)(methyl)amino)-3,4-dihydro-1H-carbazol-9(2H)-yl)acetic acid] in this work.

An IC50 (hCRTH2 receptor [1]) of 21 nM, an IC50 (hCRTH2 receptor [2]) of 2 nM and an IC50 (eosinophils) of 75 nM were found for `CN(c1nc2ccc(Cl)cc2o1)[C@H]1CCc2c(c3cc(F)ccc3n2CC(=O)O)C1` [Example 40, (3S)-2-(6-fluoro-3-((6-chlorobenzo[d]oxazol-2-yl)(methyl)amino)-3,4-dihydro-1H-carbazol-9(2H)-yl)acetic acid] in this work.

An IC50 (hCRTH2 receptor [1]) of 36 nM, an IC50 (hCRTH2 receptor [2]) of 2.2 nM and an IC50 (eosinophils) of 19 nM were found for `CN(c1ncc(C2CC2)cn1)[C@H]1CCc2c(c3cc(F)ccc3n2CC(=O)O)C1` [Example 42, (3S)-2-(3-((5-cyclopropylpyrimidin-2-yl)(methyl)amino)-6-fluoro-3,4-dihydro-1H-carbazol-9(2H)-yl)acetic acid] in this work.

An IC50 (hCRTH2 receptor [1]) of 12 nM, an IC50 (hCRTH2 receptor [2]) of 4.6 nM and an IC50 (eosinophils) of 6 nM were found for `CN(c1nc2ccc(F)cc2o1)[C@H]1CCc2c(c3cc(F)ccc3n2CC(=O)O)C1` [Example 43, (3S)-2-(6-fluoro-3-((6-fluorobenzo[d]oxazol-2-yl)(methyl)amino)-3,4-dihydro-1H-carbazol-9(2H)-yl)acetic acid] in this work.

An IC50 (hCRTH2 receptor [1]) of 25 nM, an IC50 (hCRTH2 receptor [2]) of 9.7 nM and an IC50 (eosinophils) of 414 nM were found for `Cc1csc(N(C)C2CCc3c(c4cc(F)ccc4n3CC(=O)O)C2)n1` (stereo not drawn) [Example 45, 2-(6-fluoro-3-(methyl(4-methylthiazol-2-yl)amino)-3,4-dihydro-1H-carbazol-9(2H)-yl)acetic acid] in this work.
